The results in this text go back to ChEMBL document CHEMBL1641575, “Conventional and microwave assisted synthesis of 2-oxo-4-substituted aryl-azetidine derivatives of benzotriazole: a new class of biological compounds” (Bioorg Med Chem Lett, 2011).

In data set [1] the test system is Mycobacterium tuberculosis. The experiment in a line: Antitubercular activity against Mycobacterium tuberculosis H37Rv assessed as inhibition of colonies after 30 days by agar microdilution method. Type of data set: functional.
The next data set relates to Staphylococcus aureus. Description: Antibacterial activity against Staphylococcus aureus assessed as inhibition of visible growth after 48 hrs by agar dilution method. Type of data set: functional. (In agar dilution, organisms are placed on agar that contains the substance at set levels.)
Another data set deals with Escherichia coli. The experiment in a line: Antibacterial activity against Escherichia coli assessed as inhibition of visible growth after 48 hrs by agar dilution method. Type of data set: functional.
The subject of a further data set is Streptococcus pneumoniae. The experiment in a line: Antibacterial activity against Streptococcus pneumoniae assessed as inhibition of visible growth after 48 hrs by agar dilution method. Type of data set: functional.
A further data set concerns Candida albicans. Description: Antifungal activity against Candida albicans assessed as inhibition of visible growth after 48 hrs by agar dilution method. Type of data set: functional.
Another data set has as its system Aspergillus fumigatus. The experiment in a line: Antifungal activity against Aspergillus fumigatus assessed as inhibition of visible growth after 48 hrs by agar dilution method. Type of data set: functional.
Another data set concerns Aspergillus niger. The experiment in a line: Antifungal activity against Aspergillus niger assessed as inhibition of visible growth after 48 hrs by agar dilution method. Type of data set: functional.
Data set [2] is described as follows: Cytotoxicity against african green monkey Vero C1008 cells at 0.01 to 0.1 ug/ml by neutral red uptake assay. Type of data set: cell-based. The following applies: chlorocebus sabaeus.

Values after ≈ are worked out from the molar mass of the structure shown. Bounds are passed on as bounds.

One may read the MIC as the lowest concentration found to suppress growth. As for `O=C1C(Cl)C(c2ccccc2)N1/N=C/CCn1nnc2ccccc21` (configuration not stated), the minimum inhibitory concentration (MIC) in data set [1] is over 12.5 µg/mL; in the data set on Staphylococcus aureus it was 1 µg/mL (≈ 2.83 µM); in the data set on Escherichia coli, 1 µg/mL (≈ 2.83 µM); with Streptococcus pneumoniae, 0.5 µg/mL (≈ 1.41 µM); in the data set with Candida albicans, 1 µg/mL (≈ 2.83 µM); in the data set with Aspergillus fumigatus, 1 µg/mL (≈ 2.83 µM). Also, the MIC in the data set with Aspergillus niger was 1 µg/mL (≈ 2.83 µM). In addition, in data set [2], the Activity result is recorded as “Non-toxic”.

As for `O=C1C(Cl)C(c2ccccc2Cl)N1/N=C/CCn1nnc2ccccc21` (configuration not stated), the MIC in data set [1] turned out to be 3.12 µg/mL (≈ 8.05 µM); with Staphylococcus aureus, 0.5 µg/mL (≈ 1.29 µM); in the data set with Escherichia coli it was 0.1 µg/mL (≈ 0.258 µM); in the data set on Streptococcus pneumoniae, 0.1 µg/mL (≈ 0.258 µM); in the data set with Candida albicans, 1 µg/mL (≈ 2.58 µM); in the data set on Aspergillus fumigatus, 0.5 µg/mL (≈ 1.29 µM). Besides, the minimum inhibitory concentration (MIC) with Aspergillus niger turned out to be 0.5 µg/mL (≈ 1.29 µM).

Turning to `O=C1C(Cl)C(c2ccc(Cl)cc2)N1/N=C/CCn1nnc2ccccc21` (configuration not stated), the MIC is over 3.12 µg/mL in data set [1]; 0.1 µg/mL (≈ 0.258 µM) in the data set on Staphylococcus aureus; 0.1 µg/mL (≈ 0.258 µM) in the data set with Escherichia coli; 0.5 µg/mL (≈ 1.29 µM) with Streptococcus pneumoniae; 0.5 µg/mL (≈ 1.29 µM) with Candida albicans; 0.5 µg/mL (≈ 1.29 µM) in the data set with Aspergillus fumigatus. For the same compound, in the data set on Aspergillus niger, the MIC was found to be 1 µg/mL (≈ 2.58 µM).

`O=C1C(Cl)C(c2ccccc2Br)N1/N=C/CCn1nnc2ccccc21` (configuration not stated): the minimal inhibitory concentration (MIC) in data set [1] was over 3.12 µg/mL; in the data set on Staphylococcus aureus it was 0.1 µg/mL (≈ 0.231 µM); in the data set with Escherichia coli it was 0.1 µg/mL (≈ 0.231 µM); in the data set with Streptococcus pneumoniae it was 0.5 µg/mL (≈ 1.16 µM); with Candida albicans, 1 µg/mL (≈ 2.31 µM); in the data set on Aspergillus fumigatus it was 0.5 µg/mL (≈ 1.16 µM). Also, the MIC in the data set on Aspergillus niger is 0.5 µg/mL (≈ 1.16 µM).

Turning to `O=C1C(Cl)C(c2cccc(Br)c2)N1/N=C/CCn1nnc2ccccc21` (configuration not stated), the MIC in data set [1] amounted to 6.25 µg/mL (≈ 14.4 µM); in the data set with Staphylococcus aureus it was 0.1 µg/mL (≈ 0.231 µM); in the data set on Escherichia coli it was 0.1 µg/mL (≈ 0.231 µM); in the data set on Streptococcus pneumoniae, 0.1 µg/mL (≈ 0.231 µM); in the data set with Candida albicans it was 0.5 µg/mL (≈ 1.16 µM); in the data set on Aspergillus fumigatus, 0.1 µg/mL (≈ 0.231 µM). Further, in the data set on Aspergillus niger, the MIC was 0.1 µg/mL (≈ 0.231 µM).

On to `O=C1C(Cl)C(c2ccccc2[N+](=O)[O-])N1/N=C/CCn1nnc2ccccc21` (configuration not stated), for which the MIC in data set [1] is over 3.12 µg/mL; with Staphylococcus aureus, 0.5 µg/mL (≈ 1.25 µM); in the data set with Escherichia coli, 0.5 µg/mL (≈ 1.25 µM); in the data set with Streptococcus pneumoniae it was 0.1 µg/mL (≈ 0.251 µM); in the data set with Candida albicans, 0.1 µg/mL (≈ 0.251 µM); in the data set on Aspergillus fumigatus, 0.1 µg/mL (≈ 0.251 µM). For the same compound, the MIC with Aspergillus niger came to 0.1 µg/mL (≈ 0.251 µM).

For `O=C1C(Cl)C(c2ccc([N+](=O)[O-])cc2)N1/N=C/CCn1nnc2ccccc21` (configuration not stated), the MIC in data set [1] is over 1.56 µg/mL; in the data set on Staphylococcus aureus, 0.1 µg/mL (≈ 0.251 µM); with Escherichia coli, 0.5 µg/mL (≈ 1.25 µM); with Streptococcus pneumoniae, 0.5 µg/mL (≈ 1.25 µM); in the data set with Candida albicans it was 0.1 µg/mL (≈ 0.251 µM); in the data set on Aspergillus fumigatus, 0.5 µg/mL (≈ 1.25 µM). Further, in the data set with Aspergillus niger, the MIC worked out at 0.5 µg/mL (≈ 1.25 µM).

Turning to `COc1ccccc1C1C(Cl)C(=O)N1/N=C/CCn1nnc2ccccc21` (configuration not stated), the minimum inhibitory concentration (MIC) in data set [1] was over 6.25 µg/mL; with Staphylococcus aureus, 1 µg/mL (≈ 2.61 µM); with Escherichia coli, 2 µg/mL (≈ 5.21 µM); with Streptococcus pneumoniae, 0.5 µg/mL (≈ 1.3 µM); in the data set on Candida albicans, 0.1 µg/mL (≈ 0.261 µM); in the data set on Aspergillus fumigatus it was 0.1 µg/mL (≈ 0.261 µM). For the same compound, in the data set on Aspergillus niger, the minimal inhibitory concentration (MIC) was found to be 0.1 µg/mL (≈ 0.261 µM).

`COc1ccc(C2C(Cl)C(=O)N2/N=C/CCn2nnc3ccccc32)cc1` (configuration not stated): the MIC was over 12.5 µg/mL in data set [1]; 1 µg/mL (≈ 2.61 µM) in the data set with Staphylococcus aureus; 1 µg/mL (≈ 2.61 µM) in the data set with Escherichia coli; 0.5 µg/mL (≈ 1.3 µM) with Streptococcus pneumoniae; 0.1 µg/mL (≈ 0.261 µM) with Candida albicans; 0.1 µg/mL (≈ 0.261 µM) in the data set on Aspergillus fumigatus. For the same compound, the minimal inhibitory concentration (MIC) with Aspergillus niger is 0.1 µg/mL (≈ 0.261 µM).

On to `CC[C@@H](CO)NCCN[C@@H](CC)CO` [ETHAMBUTOL], for which, in data set [1], the MIC stood at 1 µg/mL (≈ 4.89 µM).

For the compound `Clc1ccc(COC(Cn2ccnc2)c2ccc(Cl)cc2Cl)c(Cl)c1` (configuration not stated) [MICONAZOLE], the MIC in the data set on Candida albicans, with Aspergillus fumigatus and in the data set on Aspergillus niger was 0.1 µg/mL (≈ 0.24 µM) in each case.

Consider `CC1COc2c(N3CCN(C)CC3)c(F)cc3c(=O)c(C(=O)O)cn1c23` (configuration not stated) [OFLOXACIN], for which the MIC in the data set on Staphylococcus aureus, with Escherichia coli and with Streptococcus pneumoniae was 0.1 µg/mL (≈ 0.277 µM) throughout.

Consider `CN[C@@H]1[C@H](O[C@H]2[C@H](O[C@H]3[C@H](O)[C@@H](O)[C@H](N=C(N)N)[C@@H](O)[C@@H]3N=C(N)N)O[C@@H](C)[C@]2(O)C=O)O[C@@H](CO)[C@H](O)[C@H]1O` [STREPTOMYCIN], for which the minimal inhibitory concentration (MIC) in data set [1] was 4 µg/mL (≈ 6.88 µM).
